Data on two compounds can be found in US20150306096A1, “8'-HYDROXY-DIHYDROERGOTAMINE COMPOUNDS AND COMPOSITIONS” (MAP Pharmaceuticals, Inc., priority 2012, published 2015).

The target of one assay is T1, human 5-HT1D receptor (Homo sapiens, UniProt P28221).
T1 construct: purchased Euroscreen; host or cells: CHO-K1
As to the kind of experiment: Radioligand competition binding and kinetics, CHO-K1 membranes. Here is the method: (§1) For kinetics of radioligand competitive binding, serial dilutions were performed from master solution in 100% DMSO to obtain intermediate concentrations 200-fold higher than the concentrations to be tested. Each test sample was diluted 100-fold in the assay buffer and dispensed into the test plate.
5-HT1D Radioligand Binding Assay
Assay buffer: 50 mM Tris (pH 7.4), 4 mM CaCl2, 0.1% ascorbic acid
Washing buffer: 50 mM Tris (pH 7.4)
Membrane: recombinant CHO-K1-5-HT1D membranes thawed on ice and diluted in assay buffer (10 μg/well)
(§2) Ligand: 5-HT (Sigma, H-9523)
Radioligand: [^3H]-CT (Perkin Elmer, TRK1038, diluted in assay buffer for a final concentration of 0.5 nM) Filter plate: GF/B Unifilter plate (Perkin Elmer, 6005177) presoaked in 0.5% PEI for 2 hours at RT.
(§3) Determination of the Kon constant. Radioligand association kinetics on each receptor were performed by adding in the wells of a 96 well plate 50 μL of radioligand and 50 μL of membrane extracts. The samples were incubated for the times reported in Table 3 below at a temperature optimized for each receptor and filtered over a filter plate. After washing the filters 5 times with 0.5 mL of ice-cold washing buffer, 50 μL of Microscint 20 (Packard) were added to the filters and the plates were incubated 15 min on an orbital shaker and then counted for 1 min/well. This allowed determination of the kobs for each radioligand. Association kinetics were performed at 5 different radioligand concentrations optimized for each receptor (see Table 3 below) to determine 5 different kobs. The different kobs were then plotted against the [radioligand] and the K. was calculated using the following equation: kon=(kobs−koff)[radioligand].
(§4) Determination of the Koff constant. Radioligand dissociation kinetics on each receptor were performed by adding in the wells of a 96 well plate 45 μL of radioligand and 45 μL of membrane extracts. The samples were incubated as reported in Table 4 below at a temperature optimized for each receptor until binding equilibrium was reached as determined by the association kinetics experiment. Then, 100 μL of cold competitor (reference ligand) were added at a 200 fold excess (final concentration) for the times reported in Table 4 at the optimized temperature. The samples were then filtered over a filter plate. After washing the filters 5 times with 0.5 mL of ice-cold washing buffer, 50 μL of Microscint 20 (Packard) were added to the filters and the plates were incubated 15 min on an orbital shaker and then counted for 1 min/well. This allowed determination of the koff for each radioligand.
Determination of IC50 and Ki constant for each test compound. Radioligand competition binding on each receptor were performed by adding in the wells of a 96 well plate […] of test compound at increasing concentration as reported in Table 5 below, 25 μL of radioligand and 25 μL of membrane extracts. The samples were incubated for 60 min (or 4 hours for a second experiment on 5-HT2B receptors) at a temperature optimized for each receptor and then filtered over a filter plate. After washing the filters 5 times with 0.5 mL of ice-cold washing buffer, 50 μL of Microscint 20 (Packard) were added to the filters and the plates were incubated 15 min on an orbital shaker and then counted for 1 min/well. The test compounds were tested in duplicate at the nanomolar concentrations reported below in Table 5.
Determination of kon and koff constants for each test compound. Each compound was first assessed in a pilot experiment to evaluate its effect on the kinetic binding of each receptor-radioligand pair. These pilot experiments were performed at on compound concentration and were composed of 10 time-points measurements in duplicate (2, 5, 10, 20, 30, 45, 60, 90, 120 and 150 minutes).
A general note: In a radioligand displacement assay an active substance lowers the binding of a labelled ligand.

The next assay concerns the target T2, human 5-HT2B receptor (Homo sapiens, UniProt P41595).
T2 construct: purchased Euroscreen; host or cells: CHO-K1
Described as above. Here is the method: as §1, §2, §3, §4
Determination of IC50 and Ki constant for each test compound. […] After washing the filters 5 times with 0.5 mL of ice-cold washing buffer, 50 μL of Microscint 20 (Packard) were added to the filters and the plates were incubated 15 min on an orbital shaker and then counted for 1 min/well. […]
Determination of kon and koff constants for each test compound. Each compound was first assessed in a pilot experiment to evaluate its effect on the kinetic binding of each receptor-radioligand pair. […]

In assay [1] the target is T3, human Serotonin 5-HT5A receptor (Homo sapiens, UniProt P47898).
T3 construct: expressed in transfected cells; host or cells: CHO-K1 or HEK-293, coexpressing mitochondrial apoaequorin
As to the kind of experiment: Aequorin functional assay (agonist/antagonist). Format: cell-based. As for the experimental part: Functional profiling of agonist and antagonist activities of 8′-OH DHE on human Adrenergic α1D, Dopamine D2L, and Serotonin 5-HT1B, 5-HT1D, 5-HT1F, 5-HT3, 5-HT4e and 5-HT5A receptors (compared against the parent (DHE) molecule) was carried out as follows.
The SPA 35S-GTPγS tests were conducted with Euroscreen membrane preparations […]. The HTRF assays were conducted with recombinant cell lines. The receptor accession numbers, cellular background and reference compounds are as reported below in Table 10.
(1) DHE and 8′-OH DHE were tested for agonist and antagonist activity at the human Adrenergic α1D, Serotonin 5-HT3 and Serotonin 5-HT5A receptors using aequorin assay (in triplicate) at the following nanomolar concentrations:
(5) DHE was tested for agonist and antagonist activity at the human Adrenergic α1D, Serotonin 5-HT3 and Serotonin 5-HT5A receptors using aequorin assay (in triplicate), and at the human Dopamine D2L, Serotonin 5-HT1F and Serotonin 5-HT4E receptors using cAMP HTRF assay (in triplicate) at the following nanomolar concentrations:
(6) 8′-OH DHE was tested for agonist and antagonist activity at the human Adrenergic α1D, Serotonin 5-HT3 and Serotonin 5-HT5A receptors using aequorin assay (in triplicate), at the human Dopamine D2L, Serotonin 5-HT1F and Serotonin 5-HT4E receptors using cAMP HTRF assay (in triplicate), and at the human Serotonin 5-HT1B and Serotonin 5-HT1D receptors using GTPγS assay (in triplicate) at the following nanomolar concentrations:
CHO-K1 or HEK-293 cells coexpressing mitochondrial apoaequorin and recombinant human […], or recombinant human Serotonin 5-HT3 receptor, or recombinant human Serotonin 5-HT5A receptor grown to mid-log phase in culture media without antibiotics were detached with PBS-EDTA, centrifuged and resuspended in assay buffer (DMEMHAM's F12 with HEPES, without phenol red+0.1% BSA protease free) at a concentration of 1×10^6 cells/mL. Cells were incubated at RT for at least 4 hours with coelenterazine h. The reference agonist was tested to evaluate performance of the assay on each day of the test and to determine EC50. For agonist testing, 50 μL of cell suspension was mixed with 50 μL of test compound or reference agonist in a 96-well plate. The resulting emission of light was recorded using Hamamatsu Functional Drug Screening System 6000 (FDSS 6000 luminometer). For antagonist testing, 100 μL of the reference agonist at its EC80 was injected on the mix of cells and test compounds, following an incubation of 15 minutes after the first injection. The resulting emission of light was recorded using the FDSS 6000 luminometer. To standardize the emission of recorded light (determination of the ‘100% signal’) across plates and across different experiments, some of the wells contained 100 μM digitonin or a saturating concentration of ATP (20 μM).
Agonist activity of the test compounds was expressed as a percentage of the activity of the reference agonist at its EC100 concentration. Antagonist activity of the test compounds was expressed as a percentage of the inhibition of the reference agonist activity at its EC80 concentration. Dose-response data from the test compounds were analyzed with XLfit (IDBS) software using nonlinear regression applied to a sigmoidal dose-response model and the following equation: […]

Like-named read-outs stand apart in the source and are kept apart here.

T1 sequence (P28221 whole entry): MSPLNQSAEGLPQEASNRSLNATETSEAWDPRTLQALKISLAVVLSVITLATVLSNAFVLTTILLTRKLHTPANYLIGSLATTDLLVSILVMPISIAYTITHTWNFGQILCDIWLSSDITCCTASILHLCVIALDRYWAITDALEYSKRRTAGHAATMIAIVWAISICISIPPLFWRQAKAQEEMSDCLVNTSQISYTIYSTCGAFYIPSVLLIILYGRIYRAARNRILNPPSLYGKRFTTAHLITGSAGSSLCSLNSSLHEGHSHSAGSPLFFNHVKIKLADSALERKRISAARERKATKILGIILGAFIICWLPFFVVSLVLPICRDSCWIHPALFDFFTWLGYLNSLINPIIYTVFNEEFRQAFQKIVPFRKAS
T2 sequence (P41595 whole entry): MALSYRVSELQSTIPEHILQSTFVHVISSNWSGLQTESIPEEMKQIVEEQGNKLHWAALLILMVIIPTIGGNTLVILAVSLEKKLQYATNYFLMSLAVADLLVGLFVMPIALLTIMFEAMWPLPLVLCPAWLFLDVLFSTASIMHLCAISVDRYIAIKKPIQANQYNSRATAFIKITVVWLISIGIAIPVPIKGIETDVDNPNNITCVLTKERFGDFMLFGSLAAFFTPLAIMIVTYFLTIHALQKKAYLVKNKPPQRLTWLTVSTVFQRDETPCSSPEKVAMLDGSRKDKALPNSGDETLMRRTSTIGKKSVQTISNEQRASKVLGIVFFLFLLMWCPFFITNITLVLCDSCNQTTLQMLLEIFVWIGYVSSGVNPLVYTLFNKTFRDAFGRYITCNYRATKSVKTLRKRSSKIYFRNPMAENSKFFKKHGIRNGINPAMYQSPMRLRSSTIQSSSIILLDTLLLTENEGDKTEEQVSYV
T3 sequence (P47898 whole entry): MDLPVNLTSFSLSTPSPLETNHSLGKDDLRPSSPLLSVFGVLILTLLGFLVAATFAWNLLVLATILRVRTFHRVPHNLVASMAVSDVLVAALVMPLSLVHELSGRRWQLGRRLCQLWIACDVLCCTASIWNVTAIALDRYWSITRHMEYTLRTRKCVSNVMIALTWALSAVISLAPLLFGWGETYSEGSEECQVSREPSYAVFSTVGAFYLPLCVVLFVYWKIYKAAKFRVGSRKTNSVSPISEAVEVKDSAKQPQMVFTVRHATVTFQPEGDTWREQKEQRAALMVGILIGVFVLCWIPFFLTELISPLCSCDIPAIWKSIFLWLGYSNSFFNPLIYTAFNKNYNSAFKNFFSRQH

Turning to `CN1C[C@H](C(=O)N[C@]2(C)O[C@@]3(O)[C@@H]4CCCN4C(=O)[C@H](Cc4ccccc4)N3C2=O)C[C@@H]2c3cccc4[nH]cc(c34)C[C@H]21` [DHE, Dihydroergotamine], the IC50 at human 5-HT1D receptor came out at 0.65 nM; on human 5-HT2B receptor it was 12.9 nM; in assay [1], 48.8 nM. Besides, at human 5-HT1D receptor (5-HT1D), the “Avg Dissociation half-life” value came to 1.28 h. Further, at human 5-HT1D receptor (read-out: Avg Koff), the koff is 0.00015 s⁻¹.
Turning to `CN1C[C@H](C(=O)N[C@]2(C)O[C@@]3(O)[C@@H]4CCC(O)N4C(=O)[C@H](Cc4ccccc4)N3C2=O)C[C@@H]2c3cccc4[nH]cc(c34)C[C@H]21` (stereo partly shown) [8′-OH DHE, 8′-Hydroxy-Dihydroergotamine], the “Avg Dissociation half-life” value on human 5-HT1D receptor (5-HT1D) came out at 1.10 h. Also, the “Avg Koff” value at human 5-HT1D receptor (5-HT1D) worked out at 0.000175 s⁻¹. The IC50 worked out at 0.8 nM on human 5-HT1D receptor (5-HT1D, [3H]-CT, read-out: IC50 from binding assay); 7.73 nM at human 5-HT2B receptor (5-HT2B, [3H]-Mesulergine, read-out: IC50 from binding assay); 73.3 nM in assay [1] (Serotonin 5-HT5A, aequorin, read-out: Functional activity (antagonist)).

As usually defined, the koff is a measure of how fast the partners let go of each other.
